From patent US20180284123A1, “BARCODED RAPID ASSAY PLATFORM USEFUL FOR EFFICIENT ANALYSIS OF CANDIDATE MOLECULES AND METHODS OF MAKING AND USING THE PLATFORM” (California Institute of Technology, priority 2017, published 2018)
Numbered stars: 1 amine (or outer) side, 2 acyl side, 3 side chain; on linkers, the order of the positions; unused ones are H or OH. Bridge positions count the residues as written; N and C are the ends. Square brackets hold non-standard residues; d marks the D form. Triazole bridges read from a SMILES are 1,4-linked. Peptide text beside a SMILES is read from it. * marks the point of attachment. Biotin = O=C1N[C@H]2[C@H](CS[C@H]2CCCCC(=O)*)N1; Lys(N3) = [N-]=[N+]=NCCCC[C@H](N)C(=O)O; Ethylenediamine = C(CN[*:2])N[*:1]; PEG5 = NCCOCCOCCOCCOCCOCCC(=O)O; Pra = C#CC[C@H](N)C(=O)O

Target: T1, KRAS (Homo sapiens, UniProt P01116)
T1 construct: His6-tagged human KRas Isoform 4B (residues 1-169); His6; made in house; host or cells: E. coli BL21(DE3), PQE80 vector
Experiment: B-RAP surface immunofluorescent assay, PCC ligand KRas EC50
Format: binding
Conditions: for Avg F635, Full Centroid / Avg F635, Full Lane / avg F635, Left Part Centroid / avg F635, Middle Part Centroid / avg F635, Right Part Centroid: 10 μM KRas well of plate #1, pixel by pixel; for avg F635, Left Part Centroid: left part of centroid; for avg F635, Middle Part Centroid: middle part of centroid; for avg F635, Right Part Centroid: right part of centroid; for EC50: 13-point KRas concentration series, each point in decaplicate, Hill coefficient=1
Procedure: The barcode patterned microchip surface was partitioned into 16 individual microwells using a pre-fabricated PDMS slab. Individual biotinylated PCC candidates were complexed to specific SAC-DNA conjugates, combined into a cocktail, and then self-assembled, via DNA hybridization, onto designated barcode stripes (FIGS. 2-4). Incubation with a specific concentration of the target protein preceded incubation with a primary capture antibody and then a fluorophore-conjugated secondary detection antibody. During assay execution, each well represents a different target concentration or assay condition. Once developed, the fluorescence of the barcodes is digitized using a GenePix 4400A array scanner, with an excitation laser power optimized to a power level of 40% (60 W), which maximizes detection sensitivity while also minimizing signal saturation. Data extraction occurs using 10 μm radius circles, taken along the length of a barcode stripe. A fluorescence signal representing the average of all the pixels within a given circle is collected. A total of ten circles (data-blocks) are measured along a 180 μm span of the middle portion for each individual barcode lane in a given well. 10 μM KRas protein gave an average F635 of 47,868.7, with a standard deviation of 4154.53. 1 μM KRas protein gave an average F635 of 11437.6, with a standard deviation of 1602.202. 100 nM KRas protein gave an average F635 of 1780.6, with a standard deviation of 236.38. This illustrates the intensity across a stripe compared to the intensity from the data-block extraction. After extraction the data is background corrected. The background signal arises from (a) non-specific binding of the primary and secondary antibodies (independent of [KRas]), but can vary across different barcode stripes), and (b) non-specific binding of KRas protein ([KRas] dependent). Background (a) was assessed by measuring the average signal in the null protein well for each stripe. Background (b) was assessed by measuring the average fluorescence for the dummy ligand (Biotin* probe) that was in each well. The background subtracted data was then graphed in Graphpad Prism 7 and fitted to a sigmoidal curve (Hill coefficient=1).
Measurement of PCC Ligand KRas EC50 with the Barcode Rapid Assay Platform
Protein Incubation Buffer: Tris-buffered saline (TBS)+0.05% Tween20 (TBST)
A pre-fabricated PDMS template was aligned onto the DNA barcode microchip, and the microchip was taped into a 10 cm petri dish. The wells on the platform were wet with 50 μL PBST before filling with blocking buffer and placing into a 37° C. incubator for 1 hr. Concurrently, 40 μL 1% BSA in PBS solutions containing 750 nM of a SAC-DNA conjugate and 3.75 μM of one biotinylated PCC ligand or biotin-A20-Cy3 blank were prepared for each SAC-DNA conjugate. The biotinylated ligands were allowed to complex with the SAC protein for one hour before pooling the SAC-DNA-ligand solutions (final [SAC-DNA-ligand conjugates]=50 nM). The blocking buffer was aspirated and each well was loaded with the SAC-DNA-ligand conjugates cocktail for hybridization with the DNA barcode at 37° C. for one hour. The wells were washed with PBST (3×) before loading serially diluted solutions of KRas protein in protein buffer (0 to 400 μM). After shaking at RT for one hour, the wells were rinsed with PBST (5×), making sure to pipet up/down with the first addition of PB ST. A (100:1) dilution of CST rabbit anti-Ras Ab (#39655) in 1° ab buffer was added to each well before shaking at RT for one hour. After rinsing the wells with PBST (3×), the wells were loaded with a (200:1) dilution of Abcam goat anti-rabbit-Alexafluor 647 linked ab (ab150079) in 2° ab buffer before shaking at RT for one hour. A final rinse of the wells with PBST (3×) proceeded peeling off the PDMS slab from the barcode microchip and dipping the barcode into the following solutions: PBS, (1:1) PBS: MQ H2O, MQ H2O (2×). […]

T1 sequence (P01116 1-169 isoform P01116-2): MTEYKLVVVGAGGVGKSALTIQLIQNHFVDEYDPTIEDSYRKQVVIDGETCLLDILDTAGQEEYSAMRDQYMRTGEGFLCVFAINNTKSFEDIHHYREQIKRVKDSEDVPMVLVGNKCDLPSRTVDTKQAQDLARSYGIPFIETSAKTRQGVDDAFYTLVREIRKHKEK

Structure (SMILES) | Avg F635, Full Centroid | Avg F635, Full Lane | avg F635, Left Part Centroid | avg F635, Middle Part Centroid | avg F635, Right Part Centroid | EC50 [µM]
CCC(C)[C@@H]1NC(=O)CNC(=O)[C@H](Cc2cnc[nH]2)NC(=O)[C@@H](N)Cc2cn(nn2)CCCC[C@@H](C(=O)NCCOCCOCCOCCOCCOCCC(=O)NCCNC(=O)CCCC[C@@H]2SC[C@@H]3NC(=O)N[C@@H]32)NC(=O)CNC(=O)[C@H](C(C)C)NC1=O (single isomer, unassigned) [Ligand L1b, HGIVG] | 24340 | 22519 | 21889 | 24245 | 26959 | –
CC(C)[C@@H]1NC(=O)[C@H](CCC(=O)O)NC(=O)CNC(=O)[C@@H](N)Cc2cn(nn2)CCCC[C@@H](C(=O)NCCOCCOCCOCCOCCOCCC(=O)NCCNC(=O)CCCC[C@@H]2SC[C@@H]3NC(=O)N[C@@H]32)NC(=O)[C@@H]2CCCN2C(=O)[C@H](C(C)C)NC1=O (single isomer, unassigned) [Ligand L3a, GEVVP] | 8117 | 7151 | 7137 | 8430 | 8811 | 1.49 ± 0.28
CC(C)[C@@H]1NC(=O)[C@H](CCC(=O)O)NC(=O)CNC(=O)[C@@H](N)Cc2cn(nn2)CCCC[C@@H](C(=O)NCCOCCOCCOCCOCCOCCC(=O)NCCNC(=O)CCCC[C@@H]2SC[C@@H]3NC(=O)N[C@@H]32)NC(=O)[C@@H]2CCCN2C(=O)[C@H](C(C)C)NC1=O (single isomer, unassigned) [Ligand L3b, GEVVP] | 16158 | 15157 | 15070 | 16390 | 17046 | 13.7 ± 4.8
CC(C)[C@@H]1NC(=O)[C@@H](N)Cc2cn(nn2)CCCC[C@@H](C(=O)NCCOCCOCCOCCOCCOCCC(=O)NCCNC(=O)CCCC[C@@H]2SC[C@@H]3NC(=O)N[C@@H]32)NC(=O)[C@H](Cc2ccc(O)cc2)NC(=O)[C@@H]2CCCN2C(=O)[C@H](C(C)C)NC(=O)[C@H](CCC(=O)O)NC1=O (single isomer, unassigned) [Ligand L4a, VEVPY] | 11363 | 10434 | 10179 | 11181 | 12764 | 9.51 ± 2.2
CC(C)[C@@H]1NC(=O)[C@@H](N)Cc2cn(nn2)CCCC[C@@H](C(=O)NCCOCCOCCOCCOCCOCCC(=O)NCCNC(=O)CCCC[C@@H]2SC[C@@H]3NC(=O)N[C@@H]32)NC(=O)[C@H](Cc2ccc(O)cc2)NC(=O)[C@@H]2CCCN2C(=O)[C@H](C(C)C)NC(=O)[C@H](CCC(=O)O)NC1=O (single isomer, unassigned) [Ligand L4b, VEVPY] | 27245 | 25079 | 23307 | 27398 | 31147 | 52.2 ± 22
CC(C)[C@@H]1NC(=O)[C@H](CCC(=O)O)NC(=O)[C@H](C(C)C)NC(=O)[C@@H](N)Cc2cn(nn2)CCCC[C@@H](C(=O)NCCOCCOCCOCCOCCOCCC(=O)NCCNC(=O)CCCC[C@@H]2SC[C@@H]3NC(=O)N[C@@H]32)NC(=O)[C@@H]2CCCN2C(=O)[C@H](Cc2ccc(O)cc2)NC1=O (single isomer, unassigned) [Ligand L5a, VEVYP] | 8341 | 7851 | 7918 | 8920 | 8196 | –
CC(C)[C@@H]1NC(=O)[C@H](CCC(=O)O)NC(=O)[C@H](C(C)C)NC(=O)[C@@H](N)Cc2cn(nn2)CCCC[C@@H](C(=O)NCCOCCOCCOCCOCCOCCC(=O)NCCNC(=O)CCCC[C@@H]2SC[C@@H]3NC(=O)N[C@@H]32)NC(=O)[C@@H]2CCCN2C(=O)[C@H](Cc2ccc(O)cc2)NC1=O (single isomer, unassigned) [Ligand L5b, VEVYP] | 32390 | 31581 | 31947 | 32789 | 32448 | –
CC(C)[C@@H]1NC(=O)[C@@H](N)Cc2cn(nn2)CCCC[C@@H](C(=O)NCCOCCOCCOCCOCCOCCC(=O)NCCNC(=O)CCCC[C@@H]2SC[C@@H]3NC(=O)NC32)NC(=O)[C@H](Cc2ccc(O)cc2)NC(=O)[C@@H]2CCCN2C(=O)[C@H](C(C)C)NC(=O)[C@H](CCC(N)=O)NC1=O (single isomer, unassigned) [Ligand L7a, VQVPY] | 36651 | 32992 | 32020 | 37152 | 40918 | 4.22 ± 0.71
CC(C)[C@@H]1NC(=O)[C@@H](N)Cc2cn(nn2)CCCC[C@@H](C(=O)NCCOCCOCCOCCOCCOCCC(=O)NCCNC(=O)CCCC[C@@H]2SC[C@@H]3NC(=O)NC32)NC(=O)[C@H](Cc2ccc(O)cc2)NC(=O)[C@@H]2CCCN2C(=O)[C@H](C(C)C)NC(=O)[C@H](CCC(N)=O)NC1=O (single isomer, unassigned) [Ligand L7b, VQVPY] | 16195 | 14791 | 12956 | 16944 | 18781 | 25.3 ± 8.9
CC(C)[C@@H]1NC(=O)[C@@H](N)Cc2cn(nn2)CCCC[C@@H](C(=O)NCCOCCOCCOCCOCCOCCC(=O)NCCNC(=O)CCCC[C@@H]2SC[C@@H]3NC(=O)N[C@@H]32)NC(=O)[C@H](Cc2ccc(O)cc2)NC(=O)[C@@H]2CCCN2C(=O)[C@H](C(C)C)NC(=O)[C@H]([C@@H](C)O)NC1=O [Ligand L6] (H-[Pra]VTVPY[Lys(N3)][PEG5]-{Ethylenediamine-Biotin}; triazole 1-7) | 17836 | 15968 | 15645 | 19382 | 18546 | –
CC(C)[C@@H]1NC(=O)[C@@H](N)Cc2cn(nn2)CCCC[C@@H](C(=O)NCCOCCOCCOCCOCCOCCC(=O)NCCNC(=O)CCCC[C@@H]2SC[C@@H]3NC(=O)NC32)NC(=O)[C@H](Cc2ccc(O)cc2)NC(=O)[C@@H]2CCCN2C(=O)[C@H](C(C)C)NC(=O)[C@H](CCC(N)=O)NC1=O (stereo partly shown) [Ligand L7, VQVPY] | 53496 | 48537 | 48599 | 54620 | 57411 | –
